Results taken from BindingDB's records for doi:10.1002/cbic.200800704 (Antibiotics Laboratory, 2009).

Biological target: Carbonic anhydrase 2 (Homo sapiens, UniProt P00918)
Experiment: Inhibition Assay
Conditions: pH 8.4
Experimental: Inhibitory activity of the compounds for CAII was measured and IC50 values were calculated from independent triplicated experiments. Kd values were obtained by ITC analysis.

SMILES | IC50 [nM] | Kd [nM]
NS(=O)(=O)c1ccc(F)cc1 [4-Fuloro sulfonamide, C] | 203 | 435
NS(=O)(=O)c1ccc(N2CCN(CCO)CC2)cc1 [Piperazine moiety, 5] | 137 | 208
NS(=O)(=O)c1ccc(N2CCNCC2)cc1 [Piperazine moiety, 4] | 299 | 426
NS(=O)(=O)c1ccc(N2CCN(Cc3ccncc3)CC2)cc1 [Piperazine moiety, 3] | 48 | 29
NS(=O)(=O)c1ccc(N2CCN(C(=O)c3ccncc3)CC2)cc1 [Piperazine moiety, 6] | 72 | 100
